Earlier results on six compounds are cited in patent publication US10968292B2, “Synthetic polymer film whose surface has microbicidal activity, photocurable resin composition, manufacturing method of synthetic polymer film, and sterilization method with use of surface of synthetic polymer film” (SHARP KABUSHIKI KAISHA, priority 2017, dated 2021).

For the first series the following is noted: monomers; YES/NO.
“polyethylene glycol (200) diacrylate [Example M282]”: the “Water Solubility” value is on record as “YES”.
“polyethylene glycol (400) diacrylate [Example M280]”: the “Water Solubility” value is listed as “YES”.

Still in this series, the particulars now being: organic acids; water at about 20° C. to about 25° C.
Turning to `O=C(O)CCCCCCCCCCC(=O)O` [Dodecanedioic Acid, dodecanedioic acid], the “Water Solubility (solubility index)” value is recorded as 7 (Practically insoluble • Not less than 10000 mL).
For the compound `O=P(O)(O)Oc1ccccc1` [PPA, phenylphosphate], the “Water Solubility (solubility index)” value is given as 1 (Very soluble • Less than 1 mL).
As for `O=C(O)CCCCCCC(=O)O` [Suberic Acid, octanedioic acid], the “Water Solubility (solubility index)” value was 5 (Slightly soluble • Equal to or greater than 100 mL and less than 1000 mL).
Regarding `Cc1cc(C)c(C(=O)O)c(C)c1` [TMBA, 2,4,6-trimethylbenzoic acid], the “Water Solubility (solubility index)” value was 6 (Very slightly soluble • Equal to or greater than 1000 mL and less than 10000 mL).
